Experimental findings from the supplement of paper PMC10307832 are described below.

What all share (test): relative viability (nuclei count vs DMSO), 5 days (fraction); higher = more cells survive
Compound in the assay “Vorinostat + Palbociclib”: O=C(CCCCCCC(=O)Nc1ccccc1)NO [Vorinostat] + CC(=O)c1c(C)c2cnc(Nc3ccc(N4CCNCC4)cn3)nc2n(C2CCCC2)c1=O [Palbociclib] (partner 0.5 µM)
Put shortly: (§1)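 Each reported value is a median over duplicate plates. It expresses relative viability: treated-well nuclei count divided by vehicle-well nuclei count. Lung cancer cell lines in 1536-well plates were dosed by pin tool a day after seeding, alone with one drug or with a fixed anchor-drug dose plus five library-drug doses (not always all listed) in √10 steps, and nuclei were counted after 5 days.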

Compound in the assay “Vorinostat + Luminespib”: O=C(CCCCCCC(=O)Nc1ccccc1)NO [Vorinostat] + CCNC(=O)c1noc(-c2cc(C(C)C)c(O)cc2O)c1-c1ccc(CN2CCOCC2)cc1 [Luminespib] (partner 0.01 µM)
Put shortly:
as §1

Compound in the assay “Vorinostat + Pictilisib”: O=C(CCCCCCC(=O)Nc1ccccc1)NO [Vorinostat] + CS(=O)(=O)N1CCN(Cc2cc3nc(-c4cccc5[nH]ncc45)nc(N4CCOCC4)c3s2)CC1 [Pictilisib] (partner 1 µM)
Put shortly: as §1

Compound in the assay “Vorinostat + Phenformin”: O=C(CCCCCCC(=O)Nc1ccccc1)NO [Vorinostat] + N=C(N)NC(=N)NCCc1ccccc1 [Phenformin] (partner 250 µM)
Put shortly: as §1

Compound in the assay “Vorinostat + Olaparib”: O=C(CCCCCCC(=O)Nc1ccccc1)NO [Vorinostat] + O=C(c1cc(Cc2n[nH]c(=O)c3ccccc23)ccc1F)N1CCN(C(=O)C2CC2)CC1 [Olaparib] (partner 8 µM)
Put shortly: as §1

As to NCI-H2347, the relative viability with Vorinostat + Palbociclib (first compound 0.253 µM) is 0.405; with Vorinostat + Palbociclib (first compound 0.8 µM), 0.371; in the assay with Vorinostat + Palbociclib (first compound 2.53 µM), 0.362; with Vorinostat + Palbociclib (first compound 8 µM), 0.242; with Vorinostat + Luminespib (first compound 0.253 µM), 0.608; with Vorinostat + Luminespib (first compound 0.8 µM), 0.333. Also, the relative viability with Vorinostat + Luminespib (first compound 2.53 µM) amounted to 0.221; in the assay with Vorinostat + Luminespib (first compound 8 µM), 0.192; with Vorinostat + Pictilisib (first compound 0.253 µM), 0.696; with Vorinostat + Pictilisib (first compound 0.8 µM), 0.377; with Vorinostat + Pictilisib (first compound 2.53 µM) it was 0.199; in the assay with Vorinostat + Pictilisib (first compound 8 µM), 0.211. The relative viability with Vorinostat + Phenformin (first compound 0.253 µM) came to 0.46; with Vorinostat + Phenformin (first compound 0.8 µM) it was 0.351; in the assay with Vorinostat + Phenformin (first compound 2.53 µM) it was 0.19; with Vorinostat + Phenformin (first compound 8 µM), 0.2; with Vorinostat + Olaparib (first compound 0.253 µM), 0.575; with Vorinostat + Olaparib (first compound 0.8 µM), 0.633. For the same cell line, the relative viability with Vorinostat + Olaparib (first compound 2.53 µM) turned out to be 0.401; with Vorinostat + Olaparib (first compound 8 µM) it was 0.241.

For EMC-BAC-2, the relative viability with Vorinostat + Palbociclib (first compound 0.253 µM) stood at 0.49; with Vorinostat + Palbociclib (first compound 0.8 µM), 0.425; in the assay with Vorinostat + Palbociclib (first compound 2.53 µM), 0.254; with Vorinostat + Palbociclib (first compound 8 µM) it was 0.203; in the assay with Vorinostat + Luminespib (first compound 0.253 µM), 1.13; with Vorinostat + Luminespib (first compound 0.8 µM), 1.13. The relative viability was 0.484 in the assay with Vorinostat + Luminespib (first compound 2.53 µM); 0.182 with Vorinostat + Luminespib (first compound 8 µM); 0.596 in the assay with Vorinostat + Pictilisib (first compound 0.253 µM); 0.531 with Vorinostat + Pictilisib (first compound 0.8 µM); 0.372 with Vorinostat + Pictilisib (first compound 2.53 µM); 0.129 with Vorinostat + Pictilisib (first compound 8 µM). Further, the relative viability with Vorinostat + Phenformin (first compound 0.253 µM) is 0.523; in the assay with Vorinostat + Phenformin (first compound 0.8 µM), 0.473; with Vorinostat + Phenformin (first compound 2.53 µM), 0.248; in the assay with Vorinostat + Phenformin (first compound 8 µM), 0.163; in the assay with Vorinostat + Olaparib (first compound 0.253 µM) it was 0.448; in the assay with Vorinostat + Olaparib (first compound 0.8 µM), 0.382. Further, the relative viability with Vorinostat + Olaparib (first compound 2.53 µM) was determined as 0.216; in the assay with Vorinostat + Olaparib (first compound 8 µM), 0.139.

In the case of A-427, the relative viability stood at 0.522 with Vorinostat + Palbociclib (first compound 0.253 µM); 0.496 in the assay with Vorinostat + Palbociclib (first compound 0.8 µM); 0.331 with Vorinostat + Palbociclib (first compound 2.53 µM); 0.227 with Vorinostat + Palbociclib (first compound 8 µM); 1.03 in the assay with Vorinostat + Luminespib (first compound 0.253 µM); 0.892 with Vorinostat + Luminespib (first compound 0.8 µM). The relative viability with Vorinostat + Luminespib (first compound 2.53 µM) worked out at 0.339; with Vorinostat + Luminespib (first compound 8 µM), 0.158; with Vorinostat + Pictilisib (first compound 0.253 µM) it was 0.65; with Vorinostat + Pictilisib (first compound 0.8 µM) it was 0.595; with Vorinostat + Pictilisib (first compound 2.53 µM), 0.586; in the assay with Vorinostat + Pictilisib (first compound 8 µM), 0.153. The relative viability with Vorinostat + Phenformin (first compound 0.253 µM) was 0.389; with Vorinostat + Phenformin (first compound 0.8 µM), 0.396; with Vorinostat + Phenformin (first compound 2.53 µM) it was 0.229; with Vorinostat + Phenformin (first compound 8 µM) it was 0.139; with Vorinostat + Olaparib (first compound 0.253 µM), 0.71; in the assay with Vorinostat + Olaparib (first compound 0.8 µM), 0.789. The values for the relative viability in the assay with Vorinostat + Olaparib (first compound 2.53 µM) and in the assay with Vorinostat + Olaparib (first compound 8 µM) were 0.468 and 0.21, respectively.

For the cell line NCI-H2009, the relative viability with Vorinostat + Palbociclib (first compound 0.253 µM) amounted to 0.267; in the assay with Vorinostat + Palbociclib (first compound 0.8 µM), 0.25; with Vorinostat + Palbociclib (first compound 2.53 µM), 0.171; in the assay with Vorinostat + Palbociclib (first compound 8 µM), 0.0986; with Vorinostat + Luminespib (first compound 0.253 µM), 1.04; with Vorinostat + Luminespib (first compound 0.8 µM), 0.935. Also, the relative viability was determined as 0.752 in the assay with Vorinostat + Luminespib (first compound 2.53 µM); 0.144 with Vorinostat + Luminespib (first compound 8 µM); 1.3 in the assay with Vorinostat + Pictilisib (first compound 0.253 µM); 0.747 with Vorinostat + Pictilisib (first compound 0.8 µM); 0.346 with Vorinostat + Pictilisib (first compound 2.53 µM); 0.0949 in the assay with Vorinostat + Pictilisib (first compound 8 µM). For the same cell line, the relative viability was determined as 0.545 with Vorinostat + Phenformin (first compound 0.253 µM); 0.496 in the assay with Vorinostat + Phenformin (first compound 0.8 µM); 0.319 with Vorinostat + Phenformin (first compound 2.53 µM); 0.144 with Vorinostat + Phenformin (first compound 8 µM); 0.729 with Vorinostat + Olaparib (first compound 0.253 µM); 0.582 with Vorinostat + Olaparib (first compound 0.8 µM). The relative viability with Vorinostat + Olaparib (first compound 2.53 µM) was 0.395; with Vorinostat + Olaparib (first compound 8 µM) it was 0.0928.
